Measured values: PubChem BioAssay (NCI)
Several values for one entry are separate records, joined by “and”; a condition that tells them apart may be missing. Identical values can stand only once.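 Method: 48-hour compound exposure of cells in 96-well plates, five concentrations, linear interpolation of endpoints. GI50 = concentration required for 50% inhibition of growth. The concentration for full growth arrest is given as TGI.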

Key:
Assay in all cases: NCI anticancer screen, dose series, 48 h
[1] = test system: T-47D breast
[2] = test system: OVCAR-5 ovarian
[3] = test system: U251 CNS
[4] = test system: HS 578T breast
[5] = test system: MDA-MB-435
[6] = test system: MDA-MB-231 breast
[7] = test system: MALME-3M melanoma
[8] = test system: SK-OV-3 ovarian
[9] = test system: IGROV1 ovarian
[10] = test system: M14 melanoma
[11] = test system: SK-MEL-28 melanoma
[12] = test system: DU-145 prostate
[13] = test system: RXF 393 renal
[14] = test system: NCI-H460 lung

Row | Structure (SMILES) | TGI [1] [µM] | TGI [2] | TGI [3] [µM] | TGI [4] [µM] | TGI [5] [µM] | TGI [6] [µM] | TGI [7] [µM] | TGI [8] [µM] | TGI [9] | TGI [10] [µM] | TGI [11] [µM] | TGI [12] [µM] | TGI [13] [µM] | TGI [14] [µM] | GI50 [2] | GI50 [9] | GI50 [13]
1 | CC(C)(C)C1=CC(O)(c2c3ccccc3c(C3(O)C=C(C(C)(C)C)C(=O)C(C(C)(C)C)=C3)c3ccccc23)C=C(C(C)(C)C)C1=O | > 100 | > 100 µM | > 100 | > 100 | 0.0354 | > 100 | > 100 | > 100 | > 100 µM | > 100 | > 100 | > 100 |  |  |  |  | 
2 | CN1C(=O)[C@](C)(Cc2ccc(F)cc2)N(C(=O)OC(C)(C)C)[C@@H]1C(C)(C)C | 90.1 | > 100 µM | > 100 |  | > 100 | > 100 | > 100 | > 100 | > 100 µM | > 100 | > 100 | > 100 | 59.9 | > 100 |  |  | 
3 | O=C1/C(=C/Cc2ccco2)N=C(c2ccccc2)N1c1nc2c(Cl)cc(Cl)cc2s1 | 73.5 | > 100 µM | 83.5 | 57.4 | 60.1 | 82.2 |  | > 100 | > 100 µM | > 100 | > 100 | > 100 | 40.6 | > 100 |  |  | 
4 | Cc1nc(C)c(C(=O)NNC(=O)c2ccccc2)cc1C(=O)NNC(=O)c1ccccc1 | > 100 | > 100 µM | > 100 | > 100 | > 100 | > 100 |  | > 100 | > 10 µM | > 100 |  | > 100 | > 100 | > 100 |  |  | 
5 | Cc1cccc2c1C(=O)/C(=C/c1ccccc1C(=O)O)C2 | > 100 | > 100 µM | > 100 | > 100 | > 100 |  | > 100 |  | > 100 µM | > 100 | > 100 | > 100 | > 100 | > 100 |  |  | 
6 | COc1ccc(C2=C(N)c3cc(OC)ccc3C2=O)cc1 | > 100 | > 100 µM | > 100 | 69.9 | > 100 | > 100 | > 100 | > 100 | > 100 µM | > 100 | > 100 | > 100 |  | > 100 |  |  | 
7 | O=C(CSCC(=O)N/N=C\c1cccc(Br)c1)N/N=C\c1cccc(Br)c1 | 54.6 | 33.6 µM | 28.8 | 35.7 | 44.7 | 26.2 |  | 40.6 | 47 µM | 49.9 | 41.7 | 48.3 | 67.9 | 84.3 |  |  | 
8 | CN(C)CCSc1nccc(-c2ccc(-c3ccnc(SCCN(C)C)n3)s2)n1 |  | 29.4 µM | 26 |  |  |  | 24.2 | 47.2 | 28.8 µM |  | 36.2 |  | 9.99 | 9.86 |  |  | 
9 | O=S1(=O)OCCOS(=O)(=O)C1S(=O)(=O)c1cccc2ccccc12 |  | > 100 µM | > 100 |  | > 100 | > 100 | > 100 |  | > 100 µM | > 100 | > 100 | > 100 |  | > 100 |  |  | 
10 | CCN(CC)CCC1(C(=O)OC)SCCc2ccc(C)cc21 (configuration not stated) | > 100 | > 100 µM | > 100 | > 100 | > 100 |  | > 100 | > 100 | > 100 µM | > 100 | > 100 | > 100 | > 100 | > 100 |  |  | 
11 | O=c1cc(-c2ccccc2)[nH]c2c(F)ccc(F)c12 |  | > 100 µM | > 100 |  |  |  | 96.3 | > 100 | > 100 µM | > 100 | > 100 |  | > 100 | > 100 |  |  | 
12 | Cc1cc(C)c(N)c(CO)c1 |  | 6.61 µM and 19 µM | > 100 | > 100 | > 100 | > 100 | > 100 | > 100 | 33.3 µM and 46.9 µM | > 100 | > 100 | > 100 | > 100 | > 100 | 1.17 µM and 4.31 µM | 4.25 µM and 10.2 µM | > 100 µM and 32.3 µM
13 | C[S+](C)C1(c2ccccc2)C(=O)c2ccccc2C1=O | 92.1 | > 89.7 µM | > 66.3 | 60.8 | > 100 |  | > 100 | > 100 | > 100 µM | > 100 | > 100 | > 100 | > 100 | > 100 |  |  | 
14 | Cc1nc2cccc(F)c2c(=O)n1-c1nnc(C2CC2)s1 | > 10 | > 10 µM | > 10 | > 10 | > 10 | > 10 |  | > 10 | > 10 µM | > 10 | > 10 | > 10 | > 10 | > 10 |  |  | 
15 | CCOC(=O)N1c2c(c3ccccc3n2C(=O)OCC)C(=O)C(OC)N1C(=O)OCC (configuration not stated) |  | > 100 µM | 76.5 | 73.3 | > 100 | 83.6 | 69.8 | > 100 | > 100 µM | > 100 | 53.6 | > 100 |  | > 100 |  |  | 
16 | O=C(OCC(OC(=O)c1ccccc1)C1CC(C(O)C2CCCCC2)C(=O)O1)c1ccccc1 (configuration not stated) | > 100 | > 100 µM | > 100 | > 100 | > 100 | > 100 |  | > 100 | > 100 µM | > 100 |  | > 100 | > 100 | > 100 |  |  | 
17 | COc1ccc(-c2nc3ncccn3c2-c2ccc(S(C)(=O)=O)cc2)cc1 |  | > 100 µM | > 100 | > 100 | > 100 | > 100 |  | > 100 | > 100 µM | > 100 | > 100 | > 100 |  | > 100 |  |  | 
18 | c1ccc(C2C3=C(CCCC3)Nc3nnnn32)cc1 (configuration not stated) | > 100 | > 100 µM | > 100 | > 100 | > 100 | > 100 |  | > 100 | > 100 µM | > 100 |  | > 100 | 27.8 | > 100 |  |  | 
